The values that follow come from ChEMBL document CHEMBL1144592, “Synthesis and antimicrobial activities of Schiff bases derived from 5-chloro-salicylaldehyde” (2007).

The term MIC denotes the lowest concentration that inhibits growth of the organism. Lower therefore signals inhibition by little substance.

Common to all, as to format: functional
For one experiment, the system named is Aspergillus niger. The experiment can be described thus: Antifungal activity against Aspergillus niger after 48 hrs by MTT colorimetric method.
The test system of another experiment is Pseudomonas fluorescens. The experiment can be described thus: Antibacterial activity against Pseudomonas fluorescens after 24 hrs by MTT colorimetric method.
For a further experiment, the system named is Trichophyton rubrum. The experiment can be described thus: Antifungal activity against Trichophyton rubrum after 48 hrs by MTT colorimetric method. On the technique in general: Tetrazolium dyes change colour on reduction, which living cells bring about.
The subject of the next experiment is Bacillus subtilis. The experiment can be described thus: Antibacterial activity against Bacillus subtilis after 24 hrs by MTT colorimetric method.
In the next experiment the test system is Candida albicans. The experiment can be described thus: Antifungal activity against Candida albicans after 48 hrs by MTT colorimetric method.
Another experiment concerns Staphylococcus aureus. The experiment can be described thus: Antibacterial activity against Staphylococcus aureus after 24 hrs by MTT colorimetric method.
A further experiment has as its system Escherichia coli. The experiment can be described thus: Antibacterial activity against Escherichia coli after 24 hrs by MTT colorimetric method.

Values after ≈ are worked out from the molar mass of the structure shown.

For `Oc1ccc(Cl)cc1/C=N/C1CCN(Cc2ccccc2)CC1`, the MIC against Aspergillus niger, against Pseudomonas fluorescens, in the experiment with Trichophyton rubrum, in the experiment with Bacillus subtilis, against Candida albicans and against Staphylococcus aureus was > 50 µg/mL in each case. The MIC in the experiment on Escherichia coli was > 50 µg/mL.
Consider `Oc1ccc(Cl)cc1/C=N/CCN1CCNCC1`, for which the MIC was > 50 µg/mL against Aspergillus niger; > 50 µg/mL in the experiment with Pseudomonas fluorescens; > 50 µg/mL against Trichophyton rubrum; > 50 µg/mL against Bacillus subtilis; > 50 µg/mL with Candida albicans; 22.5 µg/mL (≈ 84 µM) against Staphylococcus aureus. The MIC in the experiment on Escherichia coli is > 50 µg/mL.
With `Oc1ccc(Cl)cc1/C=N/CC1CCCC(C/N=C/c2cc(Cl)ccc2O)C1` (stereo unspecified), the MIC against Aspergillus niger, in the experiment with Pseudomonas fluorescens, against Trichophyton rubrum, against Bacillus subtilis, in the experiment with Candida albicans and against Staphylococcus aureus was > 50 µg/mL in each case. Also, in the experiment on Escherichia coli, the MIC is > 50 µg/mL.
`CC1(/N=C/c2cc(Cl)ccc2O)CCC(C(C)(C)/N=C/c2cc(Cl)ccc2O)CC1` (stereo unspecified): the MIC with Aspergillus niger, against Pseudomonas fluorescens, against Trichophyton rubrum, in the experiment with Bacillus subtilis, against Candida albicans and in the experiment on Staphylococcus aureus was > 50 µg/mL in each case. Moreover, the MIC against Escherichia coli was > 50 µg/mL.
`OCC/N=C/c1cc(Cl)ccc1O`: the MIC was > 50 µg/mL with Aspergillus niger; > 50 µg/mL against Pseudomonas fluorescens; > 50 µg/mL with Trichophyton rubrum; > 50 µg/mL against Bacillus subtilis; 12.5 µg/mL (≈ 62.6 µM) against Candida albicans; 15.5 µg/mL (≈ 77.6 µM) in the experiment on Staphylococcus aureus. Moreover, in the experiment on Escherichia coli, the MIC was > 50 µg/mL.
As to `Oc1ccc(Cl)cc1/C=N/CCNCC/N=C/c1cc(Cl)ccc1O`, the MIC is > 50 µg/mL against Aspergillus niger; 32.5 µg/mL (≈ 85.5 µM) with Pseudomonas fluorescens; > 50 µg/mL with Trichophyton rubrum; > 50 µg/mL in the experiment on Bacillus subtilis; > 50 µg/mL against Candida albicans; > 50 µg/mL against Staphylococcus aureus. Moreover, in the experiment on Escherichia coli, the MIC was > 50 µg/mL.
Consider `CCOC(=O)N1CCC(/N=C/c2cc(Cl)ccc2O)CC1`, for which the MIC in the experiment with Aspergillus niger, in the experiment with Pseudomonas fluorescens, against Trichophyton rubrum, in the experiment on Bacillus subtilis, against Candida albicans and in the experiment on Staphylococcus aureus was > 50 µg/mL throughout. In addition, the MIC in the experiment with Escherichia coli was > 50 µg/mL.
Consider `Oc1ccc(CC/N=C/c2cc(Cl)ccc2O)cc1`, for which the MIC against Aspergillus niger was > 50 µg/mL; with Pseudomonas fluorescens it was 3.1 µg/mL (≈ 11.2 µM); in the experiment with Trichophyton rubrum it was > 50 µg/mL; with Bacillus subtilis, 48.5 µg/mL (≈ 176 µM); against Candida albicans it was > 50 µg/mL; with Staphylococcus aureus, 1.8 µg/mL (≈ 6.53 µM). For the same compound, the MIC against Escherichia coli was > 50 µg/mL.
For the compound `Oc1ccc(Cl)cc1/C=N/Cc1ccc(F)cc1`, the MIC was 47.5 µg/mL (≈ 180 µM) with Aspergillus niger; 2.8 µg/mL (≈ 10.6 µM) in the experiment with Pseudomonas fluorescens; > 50 µg/mL with Trichophyton rubrum; 45.2 µg/mL (≈ 171 µM) in the experiment with Bacillus subtilis; > 50 µg/mL in the experiment on Candida albicans; 3.4 µg/mL (≈ 12.9 µM) against Staphylococcus aureus. In the experiment on Escherichia coli, this compound gave an MIC of 1.6 µg/mL (≈ 6.07 µM).
In the case of `Oc1ccc(Cl)cc1/C=N/CCN1CCOCC1`, the MIC with Aspergillus niger is > 50 µg/mL; in the experiment with Pseudomonas fluorescens, 2.5 µg/mL (≈ 9.3 µM); in the experiment with Trichophyton rubrum, > 50 µg/mL; with Bacillus subtilis, > 50 µg/mL; with Candida albicans, > 50 µg/mL; against Staphylococcus aureus, > 50 µg/mL. Besides, the MIC with Escherichia coli came out at 3.5 µg/mL (≈ 13 µM).
With `CN(C)CCC/N=C/c1cc(Cl)ccc1O`, the MIC in the experiment on Aspergillus niger, against Pseudomonas fluorescens, in the experiment on Trichophyton rubrum, in the experiment on Bacillus subtilis, against Candida albicans and with Staphylococcus aureus was > 50 µg/mL in each case. Moreover, the MIC with Escherichia coli is > 50 µg/mL.
For the compound `CC(C/N=C/c1cc(Cl)ccc1O)/N=C/c1cc(Cl)ccc1O` (stereo unspecified), the MIC in the experiment on Aspergillus niger is > 50 µg/mL; in the experiment with Pseudomonas fluorescens, 3.6 µg/mL (≈ 10.2 µM); in the experiment with Trichophyton rubrum it was > 50 µg/mL; with Bacillus subtilis, 1.8 µg/mL (≈ 5.12 µM); in the experiment with Candida albicans it was > 50 µg/mL; with Staphylococcus aureus, > 50 µg/mL. This compound returned an MIC with Escherichia coli of 4.9 µg/mL (≈ 14 µM).
`CC(=O)N1CCN(c2ccc(OC[C@H]3CO[C@](Cn4ccnc4)(c4ccc(Cl)cc4Cl)O3)cc2)CC1` [KETOCONAZOLE]: the MIC in the experiment with Aspergillus niger is 7.8 µg/mL (≈ 14.7 µM); in the experiment on Pseudomonas fluorescens it was > 50 µg/mL; in the experiment with Trichophyton rubrum, 3.9 µg/mL (≈ 7.34 µM); against Bacillus subtilis, > 50 µg/mL; with Candida albicans, 3.9 µg/mL (≈ 7.34 µM); against Staphylococcus aureus it was > 50 µg/mL. The MIC in the experiment on Escherichia coli was > 50 µg/mL.
On to `Oc1ccc(Cl)cc1/C=N/CCCN1CCOCC1`, for which the MIC against Aspergillus niger is > 50 µg/mL; against Pseudomonas fluorescens, > 50 µg/mL; against Trichophyton rubrum it was > 50 µg/mL; in the experiment on Bacillus subtilis it was > 50 µg/mL; against Candida albicans, > 50 µg/mL; in the experiment with Staphylococcus aureus, 18.5 µg/mL (≈ 65.4 µM). Besides, the MIC against Escherichia coli is > 50 µg/mL.
`Oc1ccc(Cl)cc1/C=N/C1CCCC1`: the MIC with Aspergillus niger is > 50 µg/mL; in the experiment on Pseudomonas fluorescens, 3.4 µg/mL (≈ 15.2 µM); in the experiment on Trichophyton rubrum, > 50 µg/mL; in the experiment on Bacillus subtilis it was > 50 µg/mL; in the experiment with Candida albicans, > 50 µg/mL; in the experiment with Staphylococcus aureus it was > 50 µg/mL. Besides, the MIC against Escherichia coli was 4.1 µg/mL (≈ 18.3 µM).
For `Oc1ccc(Cl)cc1/C=N/CC/N=C/c1cc(Cl)ccc1O`, the MIC is > 50 µg/mL in the experiment with Aspergillus niger; 2.8 µg/mL (≈ 8.3 µM) in the experiment on Pseudomonas fluorescens; > 50 µg/mL in the experiment with Trichophyton rubrum; > 50 µg/mL against Bacillus subtilis; > 50 µg/mL against Candida albicans; > 50 µg/mL in the experiment with Staphylococcus aureus. Also, in the experiment on Escherichia coli, the MIC is > 50 µg/mL.
In the case of `CCN(CC)CCC/N=C/c1cc(Cl)ccc1O`, the MIC with Aspergillus niger, against Pseudomonas fluorescens, in the experiment with Trichophyton rubrum, in the experiment with Bacillus subtilis, with Candida albicans and against Staphylococcus aureus was > 50 µg/mL each time. Moreover, in the experiment on Escherichia coli, the MIC was > 50 µg/mL.
On to `Oc1ccc(Cl)cc1/C=N/CCCCCC/N=C/c1cc(Cl)ccc1O`, for which the MIC against Aspergillus niger, in the experiment on Pseudomonas fluorescens, with Trichophyton rubrum, against Bacillus subtilis, with Candida albicans and with Staphylococcus aureus was > 50 µg/mL throughout. Besides, in the experiment on Escherichia coli, the MIC was > 50 µg/mL.
`Oc1ccc(Cl)cc1/C=N/Cc1ccco1`: the MIC against Aspergillus niger is > 50 µg/mL; against Pseudomonas fluorescens it was 5.2 µg/mL (≈ 22.1 µM); against Trichophyton rubrum it was > 50 µg/mL; in the experiment on Bacillus subtilis it was 49.8 µg/mL (≈ 211 µM); against Candida albicans, > 50 µg/mL; with Staphylococcus aureus, > 50 µg/mL. In the experiment with Escherichia coli, the MIC was found to be 5.7 µg/mL (≈ 24.2 µM).
`NC[C@H]1O[C@H](O[C@H]2[C@H](O)[C@@H](O[C@H]3O[C@H](CO)[C@@H](O)[C@H](N)[C@H]3O)[C@H](N)C[C@@H]2N)[C@H](O)[C@@H](O)[C@@H]1O` [KANAMYCIN]: the MIC in the experiment with Aspergillus niger was > 50 µg/mL; with Pseudomonas fluorescens, 3.9 µg/mL (≈ 8.05 µM); with Trichophyton rubrum, > 50 µg/mL; against Bacillus subtilis, 0.39 µg/mL (≈ 0.805 µM); in the experiment on Candida albicans, > 50 µg/mL; against Staphylococcus aureus, 1 µg/mL (≈ 2.06 µM). The MIC against Escherichia coli was determined as 3.9 µg/mL (≈ 8.05 µM).
For `Oc1ccc(Cl)cc1/C=N/Cc1ccccc1`, the minimum inhibitory concentration (MIC) in the experiment with Aspergillus niger is > 50 µg/mL; against Pseudomonas fluorescens, 3.2 µg/mL (≈ 13 µM); in the experiment on Trichophyton rubrum, > 50 µg/mL; in the experiment on Bacillus subtilis, > 50 µg/mL; in the experiment with Candida albicans, > 50 µg/mL; in the experiment on Staphylococcus aureus it was > 50 µg/mL. In addition, the MIC in the experiment on Escherichia coli worked out at 3.1 µg/mL (≈ 12.6 µM).
Take `Oc1ccc(Cl)cc1/C=N/Cc1cccnc1`: the MIC is > 50 µg/mL against Aspergillus niger; 12.5 µg/mL (≈ 50.7 µM) against Pseudomonas fluorescens; > 50 µg/mL against Trichophyton rubrum; > 50 µg/mL in the experiment with Bacillus subtilis; > 50 µg/mL in the experiment with Candida albicans; 19.5 µg/mL (≈ 79 µM) against Staphylococcus aureus. Further, in the experiment on Escherichia coli, the MIC was > 50 µg/mL.
`CC1(C)CC(/N=C/c2cc(Cl)ccc2O)CC(C)(C)N1`: the MIC against Aspergillus niger is > 50 µg/mL; against Pseudomonas fluorescens, 40.5 µg/mL (≈ 137 µM); against Trichophyton rubrum it was > 50 µg/mL; with Bacillus subtilis, > 50 µg/mL; with Candida albicans, > 50 µg/mL; in the experiment with Staphylococcus aureus, > 50 µg/mL. The MIC against Escherichia coli was > 50 µg/mL.
On to `Oc1ccc(Cl)cc1/C=N/CCC/N=C/c1cc(Cl)ccc1O`, for which the MIC was > 50 µg/mL with Aspergillus niger; 4.5 µg/mL (≈ 12.8 µM) in the experiment with Pseudomonas fluorescens; > 50 µg/mL in the experiment on Trichophyton rubrum; > 50 µg/mL against Bacillus subtilis; > 50 µg/mL with Candida albicans; > 50 µg/mL against Staphylococcus aureus. This compound also returned an MIC in the experiment on Escherichia coli of 5 µg/mL (≈ 14.2 µM).
For the compound `Oc1ccc(Cl)cc1/C=N/C1CCCCC1`, the MIC against Aspergillus niger was > 50 µg/mL; against Pseudomonas fluorescens it was 12.5 µg/mL (≈ 52.6 µM); in the experiment with Trichophyton rubrum it was > 50 µg/mL; against Bacillus subtilis, > 50 µg/mL; in the experiment on Candida albicans, > 50 µg/mL; in the experiment on Staphylococcus aureus it was 25 µg/mL (≈ 105 µM). The compound also gave an MIC with Escherichia coli of 48.6 µg/mL (≈ 204 µM).
Regarding `Oc1ccc(Cl)cc1/C=N/CC1CCCCC1`, the MIC in the experiment with Aspergillus niger, in the experiment with Pseudomonas fluorescens, against Trichophyton rubrum, in the experiment on Bacillus subtilis, against Candida albicans and in the experiment on Staphylococcus aureus was > 50 µg/mL in each case. Also, the MIC against Escherichia coli is > 50 µg/mL.
As for `CN(CCC/N=C/c1cc(Cl)ccc1O)CCC/N=C/c1cc(Cl)ccc1O`, the MIC with Aspergillus niger, against Pseudomonas fluorescens, in the experiment on Trichophyton rubrum, against Bacillus subtilis, against Candida albicans and against Staphylococcus aureus was > 50 µg/mL throughout. Besides, the MIC against Escherichia coli was > 50 µg/mL.
`O=[N+]([O-])c1ccc(/N=C/c2cc(Cl)ccc2O)cc1`: the MIC is > 50 µg/mL in the experiment with Aspergillus niger; > 50 µg/mL in the experiment with Pseudomonas fluorescens; > 50 µg/mL against Trichophyton rubrum; > 50 µg/mL with Bacillus subtilis; > 50 µg/mL in the experiment with Candida albicans; 18.5 µg/mL (≈ 66.9 µM) against Staphylococcus aureus. Further, the MIC in the experiment with Escherichia coli was > 50 µg/mL.
